Assay results from patent US20250221952A1, “METHODS AND COMPOSITIONS FOR LARGE MODIFICATIONS OF ATP OUTPUT BY INNER MITOCHONDRIAL MEMBRANE LATCHING” (priority 2025, published 2025).
“And” between values parts separate entries of the source, which are not always exact repeats. Equal entries are not always repeated. “Also recorded” adds a separate entry of the source. Where two headings read alike, the source gives them in different places.

What was measured:
mitochondrial ATP output = test: Bicep curls to failure (reps-to-failure) as proxy for ATP output; type: in vivo, human; set-up: key to Latching: ↑: Up-latching is indicated by an up-arrow; ↓: down-latching by a down-arrow; —: others producing no significant effect are indicated by a dash; settings: for Latching: Table 1, up-/down-latching of IMM judged by reps-to-failure; for change in reps-to-failure from baseline: 100 mg dose, baseline 11 reps
[1] = in vivo; cited from earlier work

Structure (SMILES)	Latching (mitochondrial ATP output)	latching behaviour as described in words (mitochondrial ATP output)	also measured
O=C(O)CCC(=O)C(=O)O [AKG, Alpha-ketoglutarate]			latching behaviour as described in words (mitochondrial ATP output; in vivo): weak up-latcher
O=C(O)CCCCC(=O)O [Adipic acid]	↑		reps-to-failure after dose (mitochondrial ATP output; 1 gram with 1 gram AAKG and sodium bicarbonate, from 11 reps, in 20 minutes): 31 reps
O=C(O)CCCCCCCC(=O)O [Azelaic acid]	↑		reps-to-failure after dose (mitochondrial ATP output; one gram, used alone, from 13, in 30 minutes): 43 reps
c12c3c4c5c1c1c6c7c2c2c8c3c3c9c4c4c%10c5c5c1c1c6c6c%11c7c2c2c7c8c3c3c8c9c4c4c9c%10c5c5c1c1c6c6c%11c2c2c7c3c3c8c4c4c9c5c1c1c6c2c3c41 [C60, fullerene C60]			subsequent reps-to-failure performance (mitochondrial ATP output; FIG. 6 curve 624, 3 mg C60 in MCT oil taken at 49 reps after up-latchers and DHM): almost flat
O=C(O)CC(O)(CC(=O)O)C(=O)O [Citric acid]	↓	strongest down-latchers; also recorded: strong down-latcher	reps-to-failure after dose (mitochondrial ATP output; 50 mg taken alone, from 20): 11 reps; reps-to-failure after dose (mitochondrial ATP output; FIG. 11 point 1108, two grams neutralized, from baseline 22 reps, stays flat): 10 reps; bicep curls to failure after dose (mitochondrial ATP output; about 2 g neutralized by bicarbonate, from 24 rep baseline, at 15 and 30 minutes): 11 reps; half-life in the body [1]: about 5 minutes
COC1=C(OC)C(=O)C(C/C=C(\C)CC/C=C(\C)CC/C=C(\C)CC/C=C(\C)CC/C=C(\C)CC/C=C(\C)CC/C=C(\C)CC/C=C(\C)CC/C=C(\C)CCC=C(C)C)=C(C)C1=O [CoQ-10]	—		
CN(CC(=O)O)C(=N)N [Creatine]	—	did not latch	
O=C1c2c(O)cc(O)cc2O[C@H](c2cc(O)c(O)c(O)c2)[C@H]1O [DHM, Dihydromyricetin]		down-latching	reps-to-failure after dosing on top of up-latching (mitochondrial ATP output; FIG. 9 curve 924, dosed at point 922 after lactate/AAKG/PQQ, baseline 20 reps, then recovery): substantially below baseline
OC[C@@H](O)[C@@H](O)CO [Erythritol]	↓	strong down-latchers	reps-to-failure after dose (mitochondrial ATP output; FIG. 6 point 630, dosed at up-latched level of about 49 reps): 11 reps
O=C(O)/C=C/C(=O)O [Fumaric acid]	↑	one of the best up-latchers	reps-to-failure curve compared with curve 124 of the fumaric acid/AAKG combination (mitochondrial ATP output; FIG. 1, dosed singly, neutralized, baseline 12 reps): much lower
OCC(O)CO [Glycerol]	↓	strong down-latcher	reps-to-failure after being reduced (mitochondrial ATP output; 3 g, separate trials): 11 reps and 14 reps; reps-to-failure after being knocked down (mitochondrial ATP output; 5 g): 14 reps; reps-to-failure after dose relative to baseline (mitochondrial ATP output; FIG. 3A point 373, 5 g, from up-latched level): down to baseline; reps-to-failure after dose (stabilized) (mitochondrial ATP output; FIG. 4, five grams, from 30 reps): about 13 reps
O=C(O)CO [Glycolic acid]	↑		reps-to-failure after dose (mitochondrial ATP output; .7 g, from 14 reps (after 5 g glycerol), in about 1 hour): 28 reps
CC(O)C(=O)O (centres unmarked) [Lactic acid]	↑		reps-to-failure relative to new baseline 350 (mitochondrial ATP output; FIG. 3A points 360-362, after PQQ treatments): above baseline 350; biological half-life [1]: around 20 minutes
CC(C)=CCC/C(C)=C/C=C/C(C)=C/C=C/C(C)=C/C=C/C=C(C)/C=C/C=C(C)/C=C/C=C(\C)CCC=C(C)C [Lycopene]	↑		bicep curls to failure after dose (mitochondrial ATP output; FIG. 7, 100 mg, from baseline of 6 reps, 70 minutes): 32 reps
O=C(O)CC(O)C(=O)O (centres unmarked) [Malic acid]	↑		reps-to-failure after dose (mitochondrial ATP output; as magnesium malate, from 10 reps (after 3 g glycerol and 1 g ethyl lactate), in 2 hours): 21 reps; reps-to-failure results compared with neutralized fumaric acid in FIG. 1 (mitochondrial ATP output; separate trials, neutralized): nearly identical
O=C(O)C(O)c1ccccc1 (centres unmarked) [Mandelic acid]	↑		reps-to-failure after dose (mitochondrial ATP output; 1 g of salt, from 14 reps (after 3 g glycerol)): 31 reps
OC[C@@H](O)[C@@H](O)[C@H](O)[C@H](O)CO [Mannitol]	—		

Structure (SMILES)	Latching (mitochondrial ATP output)	latching behaviour as described in words (mitochondrial ATP output)	also measured
O=C(O)c1cccnc1 [Niacin]		down-latchers	
O=C(O)CC(=O)C(=O)O [Oxaloacetic acid]	↑		
O=C(O)c1cc(C(=O)O)c2c(n1)C(=O)C(=O)c1cc(C(=O)O)[nH]c1-2 [PQQ, Pyrroloquinoline quinone]			effect on fission and fusion reps-to-failure curves (mitochondrial ATP output; FIG. 3A point 340, PQQ increased 5-fold to 100 mg, with one gram AAKG, person after shingles): near instant merger of fission and fusion lines
O=C(O)CCCCCC(=O)O [Pimelic acid]	↑		
CC(=O)C(=O)O [Pyruvate]	—		
Oc1ccc(C=Cc2cc(O)cc(O)c2)cc1 [Resveratrol]	↓		
O=C1NS(=O)(=O)c2ccccc21 [Saccharin]	.—		
OC[C@@H](O)[C@@H](O)[C@H](O)[C@@H](O)CO [Sorbitol]	↓		
O=C(O)CCCCCCC(=O)O [Suberic acid]	↑		
O=C(O)CCC(=O)O [Succinic acid]	↑	indirect up-latcher	peak reps-to-failure relative to fumaric and/or malic acids (mitochondrial ATP output; combined with AAKG and a neutralizing base): about half; delay of reps-to-failure peak (mitochondrial ATP output; combined with AAKG and a neutralizing base, versus fumaric/malic acids): about 15 minutes
O=C(O)C(O)C(O)C(=O)O (centres unmarked) [Tartaric acid]	↑		reps-to-failure after dose (mitochondrial ATP output; 2 g, from 11 reps (after 3 g glycerol)): 21 reps
O=c1oc2cc(O)ccc2c2ccc(O)cc12 [Urolithin A]	↓		
CCCCOC(=O)C(C)O (centres unmarked) [butyl lactate]		strong down-latchers	
CCOC(=O)C(C)O (centres unmarked) [ethyl lactate]		strong down-latchers	
CN(C)c1ccc2nc3ccc(=[N+](C)C)cc-3sc2c1 [methylene blue, reference compound]			change in reps-to-failure from baseline (mitochondrial ATP output; at 15 minutes): no change; change in reps-to-failure from baseline (mitochondrial ATP output; at one hour): no change
NC(=O)c1cccnc1 [nicotinamide]		down-latchers	
CC1=C(/C=C/C(C)=C/C=C/C(C)=C/C=C/C=C(C)/C=C/C=C(C)/C=C/C2=C(C)C[C@@H](O)CC2(C)C)C(C)(C)C[C@H](O)C1 [zeaxanthin]		substantially non-latcher	maximum bicep curls to failure after dose (mitochondrial ATP output; FIG. 7 point 706, from baseline of 9 reps, in 15 minutes, then fell back): 14 reps
